Our source for the mutagenic call values is PubChem BioAssay AID1259407 (Chemical Carcinogenesis Research Information System (CCRIS), 2018).

The subject of this data set is CCRIS mutagenicity, Ames/micronucleus/aberration tests. In words: CCRIS mutagenicity studies.
Where [1] appears, read: Test System: AMES SALMONELLA TYPHIMURIUM, Strain/Indicator: TA98, Metabolic Activation: NONE, Method: PREINCUBATION
The mark [2] stands for this setting: Test System: AMES SALMONELLA TYPHIMURIUM, Strain/Indicator: TA100, Metabolic Activation: NONE, Method: PREINCUBATION
The mark [3] stands for this setting: Test System: AMES SALMONELLA TYPHIMURIUM, Strain/Indicator: TA1535, Metabolic Activation: NONE, Method: PREINCUBATION
The mark [4] stands for this setting: Test System: AMES SALMONELLA TYPHIMURIUM, Strain/Indicator: TA1537, Metabolic Activation: NONE, Method: PREINCUBATION
[5] abbreviates: Test System: AMES SALMONELLA TYPHIMURIUM, Strain/Indicator: TA100, Metabolic Activation: NONE, Method: STANDARD PLATE.

Activity calls are given as the source filed them. No rule for the calls is given here.

In the case of `CNc1ccc2nc3ccc(=[N+](C)C)cc-3sc2c1`, the mutagenic call reads like this: (Test System: Ames Salmonella typhimurium, Strain/Indicator: TA98, Metabolic Activation: None, Method: Preincubation) “active; positive”; (Test System: Ames Salmonella typhimurium, Strain/Indicator: TA98, Metabolic Activation: Rat, Liver, S-9, Aroclor 1254 (10%), Method: Preincubation) “active; positive”; (Test System: Ames Salmonella typhimurium, Strain/Indicator: TA100, Metabolic Activation: None, Method: Preincubation) “active; positive”; (Test System: Ames Salmonella typhimurium, Strain/Indicator: TA100, Metabolic Activation: Rat, Liver, S-9, Aroclor 1254 (10%), Method: Preincubation) “active; positive”; (Test System: E. coli, Strain/Indicator: WPM uvrA/pKM101, Metabolic Activation: None, Method: Preincubation) “active; positive”; (Test System: E. coli, Strain/Indicator: WPM uvrA/pKM101, Metabolic Activation: Rat, Liver, S-9, Aroclor 1254 (10%), Method: Preincubation) “active; positive”.

For `CC(C)(O)[C@H]1CC[C@@](C)([C@H]2[C@@H](O)C[C@@]3(C)[C@@H]4CC[C@H]5C(C)(C)C(=O)CC[C@@]56C[C@@]46CC[C@]23C)O1`, for the setting “End Point: IN VITRO MICRONUCLEUS, Test System: HUMAN PERIPHERAL LYMPHOCYTES, Metabolic Activation: NONE”, the mutagenic call is “inactive; negative”.

Take `OC[C@H](Cc1cccc(O)c1)[C@H](CO)Cc1cccc(O)c1`: the mutagenic call is, setting by setting: (Test System: CHINESE HAMSTER V79 CELLS, Strain/Indicator: V79 CELLS (HPRT)/6-THIOGUANINE, Metabolic Activation: NONE, Method: SUSPENSION/PLATE) “inactive; negative”; (Test System: CHINESE HAMSTER V-79, Strain/Indicator: V-79 (HPRT)/6-THIOGUANINE, Metabolic Activation: NONE) “inactive; negative”.

Consider `O=C(O)C(F)(F)C(F)(F)C(F)(F)C(F)(F)C(F)(F)C(F)(F)C(F)(F)C(F)(F)C(F)(F)F`, for which the mutagenic call is “inactive; negative” under setting [1]; “inactive; negative” (Test System: AMES SALMONELLA TYPHIMURIUM, Strain/Indicator: TA98, Metabolic Activation: RAT, LIVER, S-9, Method: PREINCUBATION); “inactive; negative” under setting [2]; “inactive; negative” (Test System: AMES SALMONELLA TYPHIMURIUM, Strain/Indicator: TA100, Metabolic Activation: RAT, LIVER, S-9, Method: PREINCUBATION); “inactive; negative” under setting [3]; “inactive; negative” (Test System: AMES SALMONELLA TYPHIMURIUM, Strain/Indicator: TA1535, Metabolic Activation: RAT, LIVER, S-9, Method: PREINCUBATION). Also, the mutagenic call under setting [4] is “inactive; negative”; the mutagenic call (Test System: AMES SALMONELLA TYPHIMURIUM, Strain/Indicator: TA1537, Metabolic Activation: RAT, LIVER, S-9, Method: PREINCUBATION) is “inactive; negative”; the mutagenic call (Test System: AMES SALMONELLA TYPHIMURIUM, Strain/Indicator: TA1538, Metabolic Activation: NONE, Method: PREINCUBATION) is “inactive; negative”; the mutagenic call (Test System: AMES SALMONELLA TYPHIMURIUM, Strain/Indicator: TA1538, Metabolic Activation: RAT, LIVER, S=9, Method: PREINCUBATION) was “inactive; negative”; the mutagenic call (Test System: CHINESE HAMSTER OVARY, Strain/Indicator: CHO-K1-BH4 (HGPRT), Metabolic Activation: NONE, Method: STANDARD PLATE) was “inactive; negative”; the mutagenic call (Test System: CHINESE HAMSTER OVARY, Strain/Indicator: CHO-K1-BH4 (HGPRT), Metabolic Activation: RAT, LIVER, S-9, Method: STANDARD PLATE) is “inactive; negative”. Also, the mutagenic call (Test System: UDS RODENT HEPATOCYTES, Strain/Indicator: THY INCORP (NON-S-PHASE), Metabolic Activation: NONE, Method: AUTORADIOGRAPHY) was “inactive; negative”.

On to `CC(=O)OCN(C)[N+](=O)[O-]`, for which the mutagenic call (Test System: AMES SALMONELLA TYPHIMURIUM, Strain/Indicator: TA100, Metabolic Activation: RAT, LIVER, S-9, AROCLOR 1254, Method: PREINCUBATION) was “active; positive”.

As to `O=C1C=C(CCl)CO1`, the mutagenic call under setting [5] is “active; positive”.

For `N=C(N)c1cc2ccc(Br)cc2[nH]1`, the mutagenic call is “inactive; negative” (Test System: AMES SALMONELLA TYPHIMURIUM, Strain/Indicator: TA98, Metabolic Activation: NONE, Method: STANDARD PLATE); “inactive; negative” (Test System: AMES SALMONELLA TYPHIMURIUM, Strain/Indicator: TA98, Metabolic Activation: RAT, LIVER, S-9, PHENOBARBITAL, Method: STANDARD PLATE); “inactive; negative” under setting [5]; “inactive; negative” (Test System: AMES SALMONELLA TYPHIMURIUM, Strain/Indicator: TA100, Metabolic Activation: RAT, LIVER, S-9, PHENOBARBITAL, Method: STANDARD PLATE).

Consider `OC[C@@H](O)[C@@H](O[C@@H]1O[C@H](CO)[C@H](O)[C@H](O)[C@H]1O)[C@H](O)[C@@H](O)CO`, for which the mutagenic call was “inactive; negative” under setting [1]; “inactive; negative” (Test System: AMES SALMONELLA TYPHIMURIUM, Strain/Indicator: TA98, Metabolic Activation: RAT, LIVER, S-9, PHENOBARBITAL AND 5,6-BENZOFLAVONE, Method: PREINCUBATION); “inactive; negative” under setting [2]; “inactive; negative” (Test System: AMES SALMONELLA TYPHIMURIUM, Strain/Indicator: TA100, Metabolic Activation: RAT, LIVER, S-9, PHENOBARBITAL AND 5,6-BENZOFLAVONE, Method: PREINCUBATION); “inactive; negative” under setting [3]; “inactive; negative” (Test System: AMES SALMONELLA TYPHIMURIUM, Strain/Indicator: TA1535, Metabolic Activation: RAT, LIVER, S-9, PHENOBARBITAL AND 5,6-BENZOFLAVONE, Method: PREINCUBATION). The mutagenic call reads like this: under setting [4], “inactive; negative”; (Test System: AMES SALMONELLA TYPHIMURIUM, Strain/Indicator: TA1537, Metabolic Activation: RAT, LIVER, S-9, PHENOBARBITAL AND 5,6-BENZOFLAVONE, Method: PREINCUBATION) “inactive; negative”; (Test System: E. COLI, Strain/Indicator: WP2 UVRA, Metabolic Activation: NONE, Method: PREINCUBATION) “inactive; negative”; (Test System: E. COLI, Strain/Indicator: WP2 UVRA, Metabolic Activation: RAT, LIVER, S-9, PHENOBARBITAL AND 5,6-BENZOFLAVONE, Method: PREINCUBATION) “inactive; negative”.
